Structures are written as SMILES.

The values that follow come from US20240246942A1, “KINASE INHIBITORS FOR THE TREATMENT OF NEURODEGENERATIVE DISEASES” (priority 2020, published 2024).

What all share (assay): biochemical
In assay [1] the target is T1, panel of 374 wild-type kinases (Homo sapiens, UniProt Q96S53).
T1 construct: purchased Reaction Biology Corporation
Conditions: read-out: % Enzyme Activity (relative to DMSO controls), kinase TESK2.

Assay [2] has as its target T2, panel of 374 wild-type kinases (Homo sapiens, UniProt Q16512).
T2 construct: purchased Reaction Biology Corporation
Conditions: read-out: % Enzyme Activity (relative to DMSO controls), kinase PKN1/PRK1.

Assay [3] deals with T3, panel of 374 wild-type kinases (Homo sapiens, UniProt P17948).
T3 construct: purchased Reaction Biology Corporation
Conditions: read-out: % Enzyme Activity (relative to DMSO controls), FLT1/VEGFR1.

In assay [4] the target is T4, panel of 374 wild-type kinases (Homo sapiens, UniProt Q13873).
T4 construct: purchased Reaction Biology Corporation
T4 sequence (Q13873 27-1038): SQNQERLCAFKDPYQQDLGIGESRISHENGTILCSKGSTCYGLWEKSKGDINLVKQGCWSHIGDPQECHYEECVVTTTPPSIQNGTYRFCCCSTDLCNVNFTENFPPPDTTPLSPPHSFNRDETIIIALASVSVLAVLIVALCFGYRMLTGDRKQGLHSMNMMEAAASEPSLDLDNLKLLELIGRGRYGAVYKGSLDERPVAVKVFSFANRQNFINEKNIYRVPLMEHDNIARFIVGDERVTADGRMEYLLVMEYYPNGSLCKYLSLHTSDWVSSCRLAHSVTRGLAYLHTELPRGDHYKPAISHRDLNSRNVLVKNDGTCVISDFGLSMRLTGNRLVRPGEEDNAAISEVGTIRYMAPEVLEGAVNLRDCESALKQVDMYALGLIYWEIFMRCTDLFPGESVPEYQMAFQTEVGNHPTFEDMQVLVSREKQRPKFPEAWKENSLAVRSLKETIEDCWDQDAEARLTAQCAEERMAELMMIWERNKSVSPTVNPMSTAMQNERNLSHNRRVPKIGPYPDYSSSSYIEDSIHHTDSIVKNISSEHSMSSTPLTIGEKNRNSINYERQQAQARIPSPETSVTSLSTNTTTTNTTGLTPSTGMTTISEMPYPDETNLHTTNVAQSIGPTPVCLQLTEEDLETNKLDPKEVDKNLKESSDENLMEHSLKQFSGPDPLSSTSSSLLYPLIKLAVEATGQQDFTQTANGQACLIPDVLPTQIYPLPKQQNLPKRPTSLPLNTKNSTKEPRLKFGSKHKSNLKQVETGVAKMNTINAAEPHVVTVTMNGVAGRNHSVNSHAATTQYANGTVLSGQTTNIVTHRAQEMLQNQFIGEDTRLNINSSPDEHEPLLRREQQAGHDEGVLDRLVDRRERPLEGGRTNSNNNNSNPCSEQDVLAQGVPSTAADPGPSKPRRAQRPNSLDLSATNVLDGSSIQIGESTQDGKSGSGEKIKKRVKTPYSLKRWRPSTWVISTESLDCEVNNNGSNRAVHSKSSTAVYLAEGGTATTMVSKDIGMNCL
The conditions noted are these: read-out: % Enzyme Activity (relative to DMSO controls), BMPR2.

Assay [5] has as its target T5, panel of 374 wild-type kinases (Homo sapiens, UniProt P16591).
T5 construct: purchased Reaction Biology Corporation
The conditions noted are these: read-out: % Enzyme Activity (relative to DMSO controls), FER.

Assay [6] has as its target T6, panel of 374 wild-type kinases (Homo sapiens, UniProt O94921).
T6 construct: purchased Reaction Biology Corporation
Conditions: read-out: % Enzyme Activity (relative to DMSO controls), CDK14/cyclin Y (PFTK1).

The target in assay [7] is T7, panel of 374 wild-type kinases (Homo sapiens, UniProt Q6DT37).
T7 construct: purchased Reaction Biology Corporation
Conditions: read-out: % Enzyme Activity (relative to DMSO controls), DMPK2.

In assay [8] the target is T8, panel of 374 wild-type kinases (Homo sapiens, UniProt Q9H2K8).
T8 construct: purchased Reaction Biology Corporation
T8 sequence (Q9H2K8 1-898): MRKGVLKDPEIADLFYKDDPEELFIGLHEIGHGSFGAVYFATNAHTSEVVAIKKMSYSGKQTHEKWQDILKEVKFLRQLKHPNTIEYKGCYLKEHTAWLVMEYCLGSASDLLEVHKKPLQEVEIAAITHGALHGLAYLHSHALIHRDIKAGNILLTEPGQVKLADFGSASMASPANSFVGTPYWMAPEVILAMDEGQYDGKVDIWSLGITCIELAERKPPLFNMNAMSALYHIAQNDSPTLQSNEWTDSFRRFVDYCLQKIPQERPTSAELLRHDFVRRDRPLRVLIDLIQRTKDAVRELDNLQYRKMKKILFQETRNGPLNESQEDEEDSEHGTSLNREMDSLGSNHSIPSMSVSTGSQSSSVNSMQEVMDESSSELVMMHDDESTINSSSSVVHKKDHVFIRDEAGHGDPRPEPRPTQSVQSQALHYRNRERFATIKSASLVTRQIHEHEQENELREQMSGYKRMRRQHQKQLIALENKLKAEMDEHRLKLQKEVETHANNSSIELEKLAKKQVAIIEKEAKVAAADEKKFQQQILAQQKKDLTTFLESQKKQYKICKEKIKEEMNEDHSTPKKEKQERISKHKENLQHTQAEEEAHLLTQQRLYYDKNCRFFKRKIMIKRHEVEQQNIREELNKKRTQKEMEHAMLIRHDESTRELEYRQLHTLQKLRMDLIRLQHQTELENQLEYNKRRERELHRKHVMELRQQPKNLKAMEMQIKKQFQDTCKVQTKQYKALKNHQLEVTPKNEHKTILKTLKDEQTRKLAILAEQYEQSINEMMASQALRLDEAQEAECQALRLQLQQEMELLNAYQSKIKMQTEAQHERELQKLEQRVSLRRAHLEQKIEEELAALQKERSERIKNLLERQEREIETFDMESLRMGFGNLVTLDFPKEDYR
The conditions noted are these: read-out: % Enzyme Activity (relative to DMSO controls), kinase TAOK3/JIK.

Assay [9] deals with T9, panel of 374 wild-type kinases (Homo sapiens, UniProt Q96PN8).
T9 construct: purchased Reaction Biology Corporation
T9 sequence (Q96PN8 1-268): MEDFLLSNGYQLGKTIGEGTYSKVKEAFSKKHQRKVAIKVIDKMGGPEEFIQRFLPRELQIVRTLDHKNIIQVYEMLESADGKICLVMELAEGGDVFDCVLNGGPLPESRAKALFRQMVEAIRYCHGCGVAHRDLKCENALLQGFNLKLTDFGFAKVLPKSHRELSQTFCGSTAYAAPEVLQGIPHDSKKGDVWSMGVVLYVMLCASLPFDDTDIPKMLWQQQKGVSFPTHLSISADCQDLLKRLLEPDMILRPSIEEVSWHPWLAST
Conditions: read-out: % Enzyme Activity (relative to DMSO controls), kinase TSSK3/STK22C.

T1 sequence (Q96S53 whole entry): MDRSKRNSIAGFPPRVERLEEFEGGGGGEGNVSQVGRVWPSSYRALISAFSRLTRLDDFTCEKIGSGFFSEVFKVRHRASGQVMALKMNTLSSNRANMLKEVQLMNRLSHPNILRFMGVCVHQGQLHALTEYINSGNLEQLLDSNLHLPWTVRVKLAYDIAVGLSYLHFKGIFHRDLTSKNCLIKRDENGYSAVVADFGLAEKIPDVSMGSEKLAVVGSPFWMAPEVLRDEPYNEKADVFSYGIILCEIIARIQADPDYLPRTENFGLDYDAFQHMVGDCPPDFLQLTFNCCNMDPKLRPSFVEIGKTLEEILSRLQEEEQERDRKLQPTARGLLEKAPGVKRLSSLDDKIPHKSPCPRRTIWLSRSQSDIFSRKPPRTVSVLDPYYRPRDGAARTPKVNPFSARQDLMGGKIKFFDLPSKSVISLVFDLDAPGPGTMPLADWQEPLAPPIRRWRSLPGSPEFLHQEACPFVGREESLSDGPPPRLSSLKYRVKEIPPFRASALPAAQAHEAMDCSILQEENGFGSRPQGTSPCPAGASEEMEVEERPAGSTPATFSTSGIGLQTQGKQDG
T6 sequence (O94921 whole entry): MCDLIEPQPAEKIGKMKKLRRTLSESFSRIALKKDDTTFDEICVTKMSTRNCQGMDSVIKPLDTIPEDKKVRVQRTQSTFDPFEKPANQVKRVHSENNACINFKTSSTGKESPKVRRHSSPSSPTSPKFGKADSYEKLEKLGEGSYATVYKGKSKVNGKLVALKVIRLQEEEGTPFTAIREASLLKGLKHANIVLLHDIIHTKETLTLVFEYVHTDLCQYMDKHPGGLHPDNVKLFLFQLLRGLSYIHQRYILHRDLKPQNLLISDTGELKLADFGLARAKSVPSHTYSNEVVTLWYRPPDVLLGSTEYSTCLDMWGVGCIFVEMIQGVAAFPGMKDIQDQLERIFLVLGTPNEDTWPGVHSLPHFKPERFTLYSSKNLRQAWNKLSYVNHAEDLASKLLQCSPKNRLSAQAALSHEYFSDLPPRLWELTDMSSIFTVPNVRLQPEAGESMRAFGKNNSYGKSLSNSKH
T3 sequence (P17948 27-1338): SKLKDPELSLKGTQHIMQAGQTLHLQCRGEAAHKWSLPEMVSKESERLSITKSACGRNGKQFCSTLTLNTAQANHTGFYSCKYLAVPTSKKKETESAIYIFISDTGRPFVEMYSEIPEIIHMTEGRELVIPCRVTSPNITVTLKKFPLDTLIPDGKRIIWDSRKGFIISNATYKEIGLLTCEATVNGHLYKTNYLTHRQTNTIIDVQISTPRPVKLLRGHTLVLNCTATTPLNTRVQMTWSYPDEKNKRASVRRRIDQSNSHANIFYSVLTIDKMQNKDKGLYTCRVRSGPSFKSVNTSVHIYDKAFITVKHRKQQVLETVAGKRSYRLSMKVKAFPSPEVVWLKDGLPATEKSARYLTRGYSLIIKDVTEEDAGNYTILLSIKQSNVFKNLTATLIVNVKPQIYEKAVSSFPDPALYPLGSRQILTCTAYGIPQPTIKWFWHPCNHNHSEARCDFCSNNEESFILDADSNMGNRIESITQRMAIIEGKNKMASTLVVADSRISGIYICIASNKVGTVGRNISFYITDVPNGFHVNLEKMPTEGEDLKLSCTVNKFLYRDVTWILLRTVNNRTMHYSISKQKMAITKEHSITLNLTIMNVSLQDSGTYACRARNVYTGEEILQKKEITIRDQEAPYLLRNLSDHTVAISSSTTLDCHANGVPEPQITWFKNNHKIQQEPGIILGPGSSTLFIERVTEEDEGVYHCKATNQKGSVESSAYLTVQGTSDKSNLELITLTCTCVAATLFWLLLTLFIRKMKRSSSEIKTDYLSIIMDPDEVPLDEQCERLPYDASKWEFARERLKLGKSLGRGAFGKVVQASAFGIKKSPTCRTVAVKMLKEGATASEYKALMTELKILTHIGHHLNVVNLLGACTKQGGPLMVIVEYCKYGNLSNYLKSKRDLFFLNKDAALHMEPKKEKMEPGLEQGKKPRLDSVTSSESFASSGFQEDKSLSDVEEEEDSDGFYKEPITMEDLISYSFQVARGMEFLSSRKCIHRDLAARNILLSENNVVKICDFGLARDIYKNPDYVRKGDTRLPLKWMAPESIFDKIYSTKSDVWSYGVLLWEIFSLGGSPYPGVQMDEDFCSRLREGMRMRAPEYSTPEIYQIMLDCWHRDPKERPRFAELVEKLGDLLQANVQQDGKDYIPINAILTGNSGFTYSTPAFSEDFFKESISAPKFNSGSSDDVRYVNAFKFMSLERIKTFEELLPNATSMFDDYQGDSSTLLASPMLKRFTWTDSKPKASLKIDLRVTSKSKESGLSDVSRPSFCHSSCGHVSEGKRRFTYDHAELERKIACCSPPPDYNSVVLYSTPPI
T7 sequence (Q6DT37 whole entry): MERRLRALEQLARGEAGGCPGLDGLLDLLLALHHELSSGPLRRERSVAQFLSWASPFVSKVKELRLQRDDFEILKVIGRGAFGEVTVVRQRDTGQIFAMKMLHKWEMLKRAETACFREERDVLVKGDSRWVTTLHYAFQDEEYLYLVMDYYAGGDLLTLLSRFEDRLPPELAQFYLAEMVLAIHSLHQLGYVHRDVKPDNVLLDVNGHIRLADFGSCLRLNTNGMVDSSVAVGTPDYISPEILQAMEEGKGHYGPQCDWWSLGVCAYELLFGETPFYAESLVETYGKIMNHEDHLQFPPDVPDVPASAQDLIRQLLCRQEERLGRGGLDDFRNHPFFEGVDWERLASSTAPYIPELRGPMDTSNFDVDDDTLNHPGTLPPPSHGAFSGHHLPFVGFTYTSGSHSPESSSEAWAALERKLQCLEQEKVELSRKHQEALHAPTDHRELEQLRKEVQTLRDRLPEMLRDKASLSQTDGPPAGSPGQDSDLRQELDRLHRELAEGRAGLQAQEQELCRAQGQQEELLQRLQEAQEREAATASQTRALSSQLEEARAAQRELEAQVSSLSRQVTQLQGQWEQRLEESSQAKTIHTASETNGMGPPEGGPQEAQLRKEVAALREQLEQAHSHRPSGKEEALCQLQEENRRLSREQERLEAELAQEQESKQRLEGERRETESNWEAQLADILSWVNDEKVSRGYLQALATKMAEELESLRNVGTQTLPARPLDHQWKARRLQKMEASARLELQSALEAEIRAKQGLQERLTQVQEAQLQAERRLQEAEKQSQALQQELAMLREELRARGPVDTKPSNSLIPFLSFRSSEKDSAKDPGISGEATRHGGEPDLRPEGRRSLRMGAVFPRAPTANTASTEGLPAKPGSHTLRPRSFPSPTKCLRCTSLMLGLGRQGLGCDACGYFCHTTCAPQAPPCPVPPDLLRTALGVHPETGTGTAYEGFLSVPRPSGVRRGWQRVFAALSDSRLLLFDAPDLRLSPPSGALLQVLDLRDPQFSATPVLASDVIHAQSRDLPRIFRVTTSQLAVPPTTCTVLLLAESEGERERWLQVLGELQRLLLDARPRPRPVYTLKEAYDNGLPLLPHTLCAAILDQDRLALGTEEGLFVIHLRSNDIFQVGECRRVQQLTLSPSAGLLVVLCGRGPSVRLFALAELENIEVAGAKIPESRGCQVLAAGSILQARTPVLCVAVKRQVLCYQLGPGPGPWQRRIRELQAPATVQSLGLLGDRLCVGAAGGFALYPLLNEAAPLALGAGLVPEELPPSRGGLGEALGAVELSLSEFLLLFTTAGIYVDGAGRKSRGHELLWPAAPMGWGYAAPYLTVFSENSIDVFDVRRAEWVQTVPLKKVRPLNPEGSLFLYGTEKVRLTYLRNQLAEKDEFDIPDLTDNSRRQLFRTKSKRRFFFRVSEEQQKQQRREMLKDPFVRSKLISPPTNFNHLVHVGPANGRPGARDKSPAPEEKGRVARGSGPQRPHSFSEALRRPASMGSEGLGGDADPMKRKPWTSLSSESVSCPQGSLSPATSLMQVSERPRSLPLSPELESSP
T2 sequence (Q16512 whole entry): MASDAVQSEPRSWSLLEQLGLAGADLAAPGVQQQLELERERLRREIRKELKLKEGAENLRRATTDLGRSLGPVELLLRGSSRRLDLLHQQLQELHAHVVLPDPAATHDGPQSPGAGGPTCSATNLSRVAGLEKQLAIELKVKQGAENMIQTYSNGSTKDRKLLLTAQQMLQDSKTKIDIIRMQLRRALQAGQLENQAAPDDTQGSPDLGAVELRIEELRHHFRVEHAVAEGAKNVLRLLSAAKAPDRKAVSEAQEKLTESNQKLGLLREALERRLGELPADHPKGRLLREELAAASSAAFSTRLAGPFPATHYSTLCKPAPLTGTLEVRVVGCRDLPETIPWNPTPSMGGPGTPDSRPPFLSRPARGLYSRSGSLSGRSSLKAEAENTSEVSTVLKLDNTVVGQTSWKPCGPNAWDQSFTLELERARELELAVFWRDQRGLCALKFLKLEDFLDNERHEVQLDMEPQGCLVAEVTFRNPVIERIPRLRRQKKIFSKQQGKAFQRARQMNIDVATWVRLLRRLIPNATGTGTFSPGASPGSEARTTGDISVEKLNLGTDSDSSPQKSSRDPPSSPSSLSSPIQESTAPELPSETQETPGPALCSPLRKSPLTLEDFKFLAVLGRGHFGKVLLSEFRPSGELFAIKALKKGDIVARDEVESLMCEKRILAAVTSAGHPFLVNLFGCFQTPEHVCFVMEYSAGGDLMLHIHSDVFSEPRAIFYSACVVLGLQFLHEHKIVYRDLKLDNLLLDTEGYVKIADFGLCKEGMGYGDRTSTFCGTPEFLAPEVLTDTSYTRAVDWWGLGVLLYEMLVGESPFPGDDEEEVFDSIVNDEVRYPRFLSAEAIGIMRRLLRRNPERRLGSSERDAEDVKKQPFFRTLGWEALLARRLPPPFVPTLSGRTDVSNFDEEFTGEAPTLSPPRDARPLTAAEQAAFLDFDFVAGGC

Consider `Cc1sc(C(=O)NC2COC2)cc1-n1cc(NC(=O)Nc2c(F)cccc2Cl)cn1` [Compound 27, 4-(4-(3-(2-chloro-6-fluorophenyl)ureido)-1H-pyrazol-1-yl)-5-methyl-N-(oxetan-3-yl)thiophene-2-carboxamide], for which the remaining activity at 10 µM in assay [1] (10 uM) is 99.2%; in assay [2] (10 uM), 76.8%; in [3] (10 uM) it was 84.1%; in assay [4] (10 uM), 84.5%; in [5] (10 uM), 90%; in assay [6] (10 uM) it was 100%. Also, the values for the remaining activity at 10 µM in assay [7] (10 uM), in [8] (10 uM) and in assay [9] (10 uM) were 118%, 98% and 100%, respectively.

On to `O=C(Nc1cnn(-c2csc(C(=O)NC3COC3)c2)c1)Nc1c(F)cccc1Cl` [Compound 25, 4-(4-(3-(2-chloro-6-fluorophenyl)ureido)-1H-pyrazol-1-yl)-N-(oxetan-3-yl)thiophene-2-carboxamide], for which the remaining activity at 5 µM in assay [1] was found to be 80.1%; in [2] it was 96.5%; in [3] it was 86.1%; in assay [4], 77.2%; in assay [5], 89.8%; in assay [6], 110%. The remaining activity at 5 µM in assay [7] is 119%; in [8] it was 90.2%; in assay [9], 101%.

For the compound `O=C(Nc1cnn(-c2csc(C(=O)NC3COC3)c2)c1)Nc1ccccc1Cl` [Compound 17, 4-(4-(3-(2-chlorophenyl)ureido)-1H-pyrazol-1-yl)-N-(oxetan-3-yl)thiophene-2-carboxamide], the remaining activity at 5 µM was 93.3% in assay [1]; 110% in assay [2]; 101% in assay [3]; 110% in [4]; 101% in [5]; 107% in [6]. Further, the remaining activity at 5 µM in assay [7] was determined as 87%; in assay [8], 103%; in [9] it was 97.7%.
